Test [1] addresses T1, porcine pancreatic lipase (Sus scrofa, UniProt P00591).
T1 construct: gene PNLIP
T1 sequence (P00591 1-450): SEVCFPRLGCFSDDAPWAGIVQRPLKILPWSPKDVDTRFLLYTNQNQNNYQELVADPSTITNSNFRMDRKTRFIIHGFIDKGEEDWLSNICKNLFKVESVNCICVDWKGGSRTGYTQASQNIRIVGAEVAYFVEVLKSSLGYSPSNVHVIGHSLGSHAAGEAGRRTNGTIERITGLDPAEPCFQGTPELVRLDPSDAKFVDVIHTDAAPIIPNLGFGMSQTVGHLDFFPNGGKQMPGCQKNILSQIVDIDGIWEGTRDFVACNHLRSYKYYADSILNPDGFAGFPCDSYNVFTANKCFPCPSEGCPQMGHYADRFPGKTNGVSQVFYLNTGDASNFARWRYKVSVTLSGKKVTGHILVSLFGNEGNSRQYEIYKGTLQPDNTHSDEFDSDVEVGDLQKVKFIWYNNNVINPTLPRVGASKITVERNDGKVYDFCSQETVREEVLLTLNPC
Put plainly: p-nitrophenyl butyrate hydrolysis assay, % inhibition at […]. The class given is biochemical.

Test [2] deals with T1, porcine pancreatic lipase. Put plainly: p-nitrophenyl butyrate hydrolysis assay; Lineweaver-Burk analysis. It counts as biochemical.

Some results are limits rather than exact numbers.

What is called inhibition is how much of the control response was suppressed. Low readings indicate a weak effect, high ones a strong effect. `O=c1c(-c2ccc(O)cc2)coc2cc(O)cc(O)c12` [compound 1, genistein]: at 100 µM the inhibition in test [1] was 60.7%.

Regarding `CC(C)=CCc1c(O)cc2occ(-c3ccc(O)cc3)c(=O)c2c1O` [compound 9, wighteone], at 100 µM the inhibition in test [1] was 65.7%.

On to `CC(C)=CCc1c(O)c(CC=C(C)C)c2occ(-c3ccc(O)c(O)c3)c(=O)c2c1O` [compound 12, 5,7,3',4'-tetrahydroxy-6-8-diprenylisoflavone], for which, in test [1], the inhibition at 100 µM came out at 92.8%. With `CC1(C)C=Cc2c(cc3occ(-c4ccc(O)c(O)c4)c(=O)c3c2O)O1` [compound 15, 5,3',4'-trihydroxy-6'',6''-dimethylpyrano-[2'',3'';7,6]isoflavone], the inhibition at 100 µM in test [1] was over 50%.

The molecule `CC(C)=CCc1c2c(c(O)c3c(=O)c(-c4ccc(O)cc4)coc13)C=CC(C)(C)O2` [compound 16, scandenone] had an inhibition at 100 µM in test [1] of over 50%. Consider `CC1(C)C=Cc2c(cc(O)c3c(=O)c(-c4ccc(O)cc4)coc23)O1` [compound 17, derrone], for which the inhibition at 100 µM in test [1] stood at 68.2%.

A word on the IC50: it is the concentration that gives 50% inhibition. Higher therefore signals weaker potency. `CC1(C)C=Cc2c(cc(O)c3c(=O)c(-c4ccc(O)c(O)c4)coc23)O1` [compound 19, 5,3',4'-trihydroxy-2", 2"-dimethylpyrano (5",6":7,8) isoflavone] came in with an IC50 in test [2] of 16.8 µM.

For the origin of these results see publication PMC5333804, “Comparison of pancreatic lipase inhibitory isoflavonoids from unripe and ripe fruits of Cudrania tricuspidata” (PLoS ONE, 2017).
